Assay results: patent US10876058B2, “Method for prevention of biodeterioration of fuels” (priority 2013, dated 2020)
Residues, ends and D or L forms follow the SMILES beside them. No end group written: not given here. *: point of attachment. βNA = c1ccc2cc(N*)ccc2c1

Experiments:
[1] = system: environmental bacteria (E. coli, Bacillus, and Pseudomonas); assay: Antimicrobial peptide growth inhibition in 1:1 fuel-growth media mixtures; assay type: cell-based; settings: for bacteria growth after addition to fuel: added to fuel (aqueous and fuel phase)
Experimental: (§1) Protegrin-1 and Magainin-2 antimicrobial peptides were added individually to the fuel phase and the aqueous (minimal media M9, Bushnell-Haas, or water) phase of 1:1 fuel-growth media mixtures containing environmental bacteria (E. coli, Bacillus, and Pseudomonas) at concentrations ranging from 1 to 1×10^9 cells/mL. Magainin 1 and 2 were obtained from Sigma-Aldrich (St. Louis, Mo.). Protegrin-1 was obtained from AnaSpec (Fremont, Calif.) or produced from a transgenic construct containing a fusion between green fluorescent protein (“GFP”) and the Protegrin-1 coding gene. The GFP-Protegrin fusion was purified by affinity chromatography and Protegrin cleaved from the fusion for use, as pure, or as a fusion in the bioassays.
(§2) The antimicrobial peptides were added at the following concentrations: 0 μg/mL, 1 μg/mL, 2.5 μg/mL, 5 μg/mL, 10 μg/mL, 20 μg/mL, 50 μg/mL, 75 μg/mL, 100 μg/mL, and 125 μg/mL in the presence and absence of fuel. Experiments using minimal media with bacteria in the presence of fuel were designed to measure the effect of fuel in combination with the antimicrobial peptide control. Control experiments contained glycerol instead of fuel as the energy source.
(§3) The antimicrobial effect of the peptides was measured every 24 hours for four days after inoculation by measuring growth through absorbance readings (OD600), DNA quantitation through qPCR, and colony counting techniques.

[2] = Partition from fuel into the aqueous phase; assay type: physicochemical; settings: added to fuel (aqueous and fuel phase)
E. coli = assay: Antimicrobial peptide growth inhibition, E. coli (FIG. 6); assay type: cell-based; settings: absence of fuel
Experimental: as §1, §2, §3

Pseudomonas = assay: Antimicrobial peptide growth inhibition, Pseudomonas (FIG. 7); assay type: cell-based; settings: absence of fuel
Experimental: as §1, §2, §3

[3] = system: environmental bacteria (Pseudomonas, Acinetobacter, Marinobacter, and Dietzia); assay: Efflux pump blocker growth inhibition in 1:1 fuel-minimal media mixtures; assay type: cell-based; settings: for bacterial growth inhibition: fuel present (FIGS. 8 and 10)
Experimental: (§4) C-capped dipeptide efflux pump blocker, Phe-Arg β-naphthylamide dihydrochloride (MC-207,110) (Sigma Aldrich) was added to the fuel phase and the aqueous (minimal media M9, Bushnell-Haas, or water) phase of 1:1 fuel-minimal media mixtures containing environmental bacteria (Pseudomonas, Acinetobacter, Marinobacter, and Dietzia) at concentrations ranging from 1 to 1×10^9 cells/mL. Phe-Arg β-naphthylamide dihydrochloride was added to the fuel at concentrations of 0 μg/mL, 20 μg/mL, 40 μg/mL, 60 μg/mL, 80 μg/mL, and 100 μg/mL. Control experiments were performed by adding 0 μg/mL to 120 μg/mL of Phe-Arg β-naphthylamide to minimal media containing bacteria and glycerol as the energy source, but not fuel.
(§5) The antimicrobial effect of the efflux pump blocker was established daily by measuring growth through absorbance readings (OD600), DNA quantitation through qPCR, and colony counting techniques.

Pseudomonas aeruginosa = assay: Efflux pump blocker growth inhibition, Pseudomonas aeruginosa (FIG. 10); assay type: cell-based; settings: fuel present (FIG. 10)
Experimental: as §4, §5

Acinetobacter venetianus = assay: Efflux pump blocker growth inhibition, Acinetobacter venetianus (FIG. 10); assay type: cell-based; settings: fuel present (FIG. 10)
Experimental: as §4, §5

[4] = system: microbial growth in the aqueous phase; assay: Treatment solution administered to jet fuel, microbial growth in the aqueous phase (FIG. 12); assay type: cell-based; settings: 80 μg/mL final in jet fuel; stock 25 mg/mL in absolute ethanol, DiEGME or water; initial and days one to three (FIG. 12)
Experimental: Treatment solutions were prepared, as described above, with 25 mg/mL efflux pump inhibitor in various solvents, including absolute ethanol, DiEGME, and water. The treatment solutions were administrated to jet fuel at a final concentration in fuel of 0 μg/mL, 40 μg/mL, and 80 μg/mL. FIG. 12 illustrates results of the 80 μg/mL treatment on initial measured microbial growth in the aqueous phase as well as microbial growth after one, two, and three days.

[5] = Stability in the presence of fuel; assay type: physicochemical; settings: activity was preserved
Description: Additional experimental results (see FIG. 10) confirm that the growth inhibition effect and the inactivity of efflux pump were effective for other bacteria, including Pseudomonas aeruginosa and Acinetobacter venetianus. The c-capped dipeptides were stable in the presence of fuel and activity was preserved.

| Compound | concentration required to completely inhibit bacteria growth ([1]; absence of fuel (FIG. 4)) [µg/mL] | bacteria growth after addition to fuel [1] | partition between fuel and aqueous phase [2] | concentration that prevented microbial growth ([1]; peptide added directly to the fuel phase) | concentration required to completely inhibit growth (E. coli) [µg/mL] | concentration required to completely inhibit growth (Pseudomonas) [µg/mL] | bacterial growth inhibition ([3]; 20 μg/mL) | bacterial growth inhibition ([3]; 40 μg/mL) | bacterial growth inhibition ([3]; 60 μg/mL) | bacterial growth inhibition ([3]; 80 μg/mL) | bacterial growth inhibition ([3]; 100 μg/mL) | inhibitory effect on bacterial growth ([3]; fuel not present (glycerol control), concentrations as high as 100 μg/mL (FIG. 9)) | concentration giving complete growth inhibition for up to 17 days ([3]; fuel present, up to 17 days (FIG. 11)) | microbial growth and proliferation under periodic administration ([3]; low concentration (less than 20 μg/mL) every 3 to 4 days) | growth inhibition effect and inactivity of efflux pump (Pseudomonas aeruginosa) | growth inhibition effect and inactivity of efflux pump (Acinetobacter venetianus) | microbial growth in the aqueous phase [4] | stability in the presence of fuel [5] |
| --- | --- | --- | --- | --- | --- | --- | --- | --- | --- | --- | --- | --- | --- | --- | --- | --- | --- | --- |
| Magainin-2 | 125 | inhibited bacteria growth | partitioned into the aqueous phase |  |  |  |  |  |  |  |  |  |  |  |  |  |  |  |
| Protegrin-1 (RGGRLCYCRRRFCVCVGR; ends and bridges not checked; cysteine pairing not given here; UniProt P32194 131-148, looked up) [18 amino acid cysteine-rich β-sheet antimicrobial peptide; from AnaSpec or cleaved from a GFP-Protegrin fusion] |  | inhibited bacteria growth | partitioned into the aqueous phase | less than or equal to 1 μg/mL | 5 | 5 |  |  |  |  |  |  |  |  |  |  |  |  |
| Cl.Cl.N=C(N)NCCC[C@H](NC(=O)[C@@H](N)Cc1ccccc1)C(=O)Nc1ccc2ccccc2c1 [c-capped dipeptide, Phe-Arg β-naphthylamide dihydrochloride] (H-Phe-Arg-βNA) |  |  |  |  |  |  | Partial bacterial growth inhibition | complete growth inhibition | complete growth inhibition | complete growth inhibition | complete growth inhibition | not observed | greater than 80 μg/mL | prevented microbial growth and proliferation | effective | effective | significantly decreased microbial growth | stable |
